# Patent US5951473A, “Determination of intracellular sodium and potassium ions by NMR” (Board of Regents, The University of Texas System, priority 1997, dated 1999)
# Entries after “also recorded” stand apart in the source; their conditions may differ.
# How the values were obtained:
# [1] = system: intra- and extracellular sodium of rat liver; assay: In vivo ^23 Na NMR shift experiments in rat liver during shift reagent infusion; settings: for ^23 Na shift and line broadening in words: DyTTHA^3- versus TmDOTP^5-; for dose required to induce a ^23 Na shift of 5 ppm: body weight; for peak width at half height, extracellular resonance / peak width at half height, intracellular resonance: resonances separated by 5 ppm
# Procedure: (§1) Animal Preparation: Male Sprague-Dawley rats weighing 350-450 g were initially anesthetized by intramuscular injection of a 0.5 ml mixture of ketamine (13 mg/ml) and xylazine (87 mg/ml). Both jugular veins and a carotid artery were cannulated through a midline neck incision. One jugular vein was used to maintain the anesthesia (2 mg/ml ketamine, 0.25 mg/ml xylazine in 5% guaifenesin) at a rate of 2-3 ml/hour, and the other was used to infuse SR. The blood pressure and heart rate were continuously monitored from the carotid artery during the NMR experiments using a Gould transducer and Coulbourn polygraph. A tracheotomy was performed and the rat was connected to a respirator and maintained at a respiration rate of 90 breaths/minute and a tidal volume of 3 cc. The rats were also nephrectomized to eliminate clearance of the shift reagent, except in those animals where SR clearance was measured. Livers were exposed through a subcostal incision and a surface coil was positioned directly on the liver with the animal in a supine position. The animals were maintained at 37° C. using a water recirculating heating pad.
# (§2) SR Infusion: Stock solutions of 80 mM TmDOTP^5- or 400 mM DyTTHA^3- were initially infused at a rate of 2 ml/hr for 6 minutes. […] After achieving a chemical shift difference of 5-7 ppm between the intra- and extracellular sodium resonances, the infusion rate was reduced to 2-3 ml/hr. No Ca^2+ was added during infusion of either SR.
# (§3) NMR Data Collection: All in vivo NMR experiments were performed on a 4.7-T 40-cm GE CSI Omega spectrometer (GE NMR Instruments, Fremont, Calif.). Shimming was performed on the sodium signal. A sodium line width of 35-40 Hz was typical. Both ^23 Na and ^31 P spectra were collected in an interleaved fashion during TmDOTP^5- infusion. […] The coil performance was optimized such that there was less sensitivity loss at the ^31 P frequency as compared to at the ^23 Na frequency.
# (§4) Switching of these parameters and the spectrometer frequency was executed by a script in an automated fashion. To take advantage of the short spin-lattice relaxation time of sodium, two ^23 Na acquisitions were collected between each ^31 P acquisition. Cyclops phase cycling was used for both the nuclei. […] The FIDs were Fourier transformed after base-line correction and a single exponential multiplication corresponding to 10 Hz line broadening for ^23 Na and a 20 Hz line broadening for ^31 P.
# rat brain = settings: cited from earlier work
# [2] = Bansal et al. 1992; cited from earlier work
# [3] = system: renal phosphate metabolites; assay: In vivo ^31 P NMR of kidney and blood pressure during TmDOTP^5- infusion; parameters: species or system rat (Sprague-Dawley)
# kidney sodium = assay: In vivo ^23 Na NMR of kidney during shift reagent infusion; parameters: species or system rat (Sprague-Dawley)
# Procedure: Male Sprage-Dawley rats were prepared for magnetic resonance exam and TmDOTP^5- was infused into animals as described in Example 2. TmDOTP^5- produced well resolved ^23 Na resonances in the kidney with a separation of 7-10 ppm between the extra- and intracellular Na^+ resonances after infusion of about 0.681 mmoles of the SR per Kilogram of Body Weight (KgBW). The inventors also observed a third ^23 Na resonance, broader than the extracellular resonance and shifted to about 35 ppm. This is the first time this resonance has been observed in any SR aided experiment in any organ. After about 10 minutes of TmDOTP^5- infusion (infusion dose 0.147 mmoles/KgBW), one broad shifted resonance became apparent at about 15 ppm. Continued infusion of the SR shifted this resonance further upfield. Simultaneously, another resonance became visible as a high frequency shoulder on the unshifted resonance after about 14 minutes of infusion (infusion dose 0.254 mmoles/KgBW). Finally, the three resonances became clearly resolved after about 17 minutes of infusion (infusion dose 0.334 mmoles/KgBW).
# The single ^23 Na resonance broadened with infusion of this shift reagent and the intracellular Na^+ resonance became evident as a shoulder on the shifted extracellular Na^+ resonance only after 3-5 mmoles of DyTTHA^3- /KgBW had been infused.
# [4] = system: rat liver phosphate metabolites and intracellular pH; assay: In vivo ^31 P NMR (interleaved) of rat liver during shift reagent infusion
# Procedure: as §1, §2, §3, §4
# rat liver = settings: in vivo, iv
# Procedure: as §1
# The washout rate of TmDOTP^5- was measured by monitoring the frequency of the shifted ^23 Na peak after stopping the infusion.
# [5] = rat, in vivo
# Procedure: Rats with third degree burns covering 40% of the body surface were employed. Adult male Sprague-Dawley rats (300-500 g) were randomly divided into burn (n=7) and sham-burn (n=4) groups. […] Rats were deeply anesthetized with methoxyflurane, shaved, and secured in a template device. A full-thickness scald burn over 40% of the total body surface area was produced by immersing the exposed body surface into a 100° C. water bath for 12 s on the back and sides. The animals were quickly dried after each exposure to avoid additional injury. No postburn analgesics were administered for this model, since the burn injury was a full-thickness burn that destroys all cutaneous nerve endings; as a result, the rats experienced no postburn pain as evidenced by their eating, drinking, moving freely around the cage, and responding to external stimulus. The sham-burn rats were anesthetized and handled in an identical manner except they were exposed to room temperature water. After recovery from inhalation anesthesia, the animals were placed in separate cages and given food and water ad libitum.
# At 24-hr postburn, the animals were anesthetized by intramuscular injection of a 0.5 ml mixture of ketamine (87 mg/ml) and xylazine (13 mg/ml) and were placed on a warming blanket. The left femoral vein, left femoral artery, and left jugular vein were cannulated for supplemental anesthesia for arterial blood pressure measurement and for infusion of the shift reagent, respectively. Heparinized saline, 9 U/ml, was used in the arterial line. A midline laparotomy was performed to expose the liver, and the xiphoid process was removed. Each rat was then secured in a cradle in an upright position for the MRS experiments. A 2.2 cm diameter surface coil dual tuned to 47 MHz for ^23 Na and 72 MHz for ^31 P was positioned over the intersection of the three major lobes and the abdominal incision was sutured in separate layers around the insulated coil leads to prevent fluid and heat loss during NMR data collection. […]
# [6] = Physiological measurements (heart rate, pressure, blood serum and gas values) in rats during TmDOTP^5- infusion; settings: doses required for baseline resolution of ^23 Na resonances
# Procedure: as §1, §2
# (§5) Several key physiological measurements were obtained on a group of animals (n=7) during infusion of TmDOTP^5- using the same protocol as used during all subsequent NMR measurements. […] Excess Ca^2+ was not coadded with the SR in these experiments, unlike in isolated perfused heart experiments where excess Ca^2+ must be coadded with TmDOTP^5- to maintain an extracellular free [Ca^2+ ] of about 1 mM.
# (§6) Serum sodium, potassium, and hemoglobin concentrations as well as arterial pH, pCO2 and pO2 were monitored throughout the infusion protocol using a standard clinical blood gas analyzer.
# in vivo exposed livers = settings: rat
# Procedure: Animal Preparation: Male Sprague-Dawley rats weighing 350-450 g were initially anesthetized by intramuscular injection of a 0.5 ml mixture of ketamine (13 mg/ml) and xylazine (87 mg/ml). Both jugular veins and a carotid artery were cannulated through a midline neck incision. One jugular vein was used to maintain the anesthesia (2 mg/ml ketamine, 0.25 mg/ml xylazine in 5% guaifenesin) at a rate of 2-3 ml/hour, and the other was used to infuse SR. The blood pressure and heart rate were continuously monitored from the carotid artery during the NMR experiments using a Gould transducer and Coulbourn polygraph. A tracheotomy was performed and the rat was connected to a respirator and maintained at a respiration rate of 90 breaths/minute and a tidal volume of 3 cc. The rats were also nephrectomized to eliminate clearance of the shift reagent, except in those animals where SR clearance was measured. […]
# The resting transmembrane potential (-Em) was measured in in vivo exposed livers using a modified Ling-Gerard ultramicroelectrode Holliday, R. L., Illner, H. P. & Shires, G. T. (1981) J. Surg. […] Serum sodium, potassium, and hemoglobin concentrations as well as arterial pH, pCO2 and pO2 were monitored throughout the infusion protocol using a standard clinical blood gas analyzer.
# [7] = rat, in vivo; remark: listed apart in the source
# Procedure: as §1, §2, §5, §6
# [8] = live rats, Bansal et al. 1992; cited from earlier work
# [9] = system: rat liver Na^+ (i) and Na^+ (e)
# Procedure: Rats with third degree burns covering 40% of the body surface were employed. Adult male Sprague-Dawley rats (300-500 g) were randomly divided into burn (n=7) and sham-burn (n=4) groups. […] Rats were deeply anesthetized with methoxyflurane, shaved, and secured in a template device. A full-thickness scald burn over 40% of the total body surface area was produced by immersing the exposed body surface into a 100° C. water bath for 12 s on the back and sides. The animals were quickly dried after each exposure to avoid additional injury. […] The sham-burn rats were anesthetized and handled in an identical manner except they were exposed to room temperature water. After recovery from inhalation anesthesia, the animals were placed in separate cages and given food and water ad libitum.
# At 24-hr postburn, the animals were anesthetized by intramuscular injection of a 0.5 ml mixture of ketamine (87 mg/ml) and xylazine (13 mg/ml) and were placed on a warming blanket. The left femoral vein, left femoral artery, and left jugular vein were cannulated for supplemental anesthesia for arterial blood pressure measurement and for infusion of the shift reagent, respectively. Heparinized saline, 9 U/ml, was used in the arterial line. A midline laparotomy was performed to expose the liver, and the xiphoid process was removed. Each rat was then secured in a cradle in an upright position for the MRS experiments. A 2.2 cm diameter surface coil dual tuned to 47 MHz for ^23 Na and 72 MHz for ^31 P was positioned over the intersection of the three major lobes and the abdominal incision was sutured in separate layers around the insulated coil leads to prevent fluid and heat loss during NMR data collection.
# Concurrent ^23 Na and ^31 P spectra were collected using a Nicolet NT 180 spectrometer with an Oxford 4.2 T vertical bore (130 mm) superconducting magnet. The field homogeneity was adjusted first with the ^1 H free induction decay (FID) from the liver and then with the ^23 Na FID for maximum field uniformity. A ^23 Na line width of 40-50 Hz was typical. ^23 Na spectra were generated from the summed FIDs of 100 excitation pulses (40 μs) at 105-ms intervals using 1,024 word data files and a sweep width of ±3000 Hz. The spectra were zero-filled to 4,096 points before Fourier transformation. The relative areas of the Na^+ (i) and Na^+ (e) resonances in the ^23 Na spectra and of the β-ATP and Pi resonances in the phosphorus spectra were determined with the GEMCAP curve analysis program supplied with the Nicolet software.
# After initial baseline spectra were obtained, infusion of TmDOTP^5 was begun at 0.5 mmol kg^-1 h^-1, and the rate was increased slowly to 1.2 or 1.6 mmol kg^-1 h^- over a period of 12 min. […]
# rat muscle = settings: cited from earlier work
# sodium in in vivo liver [10] = assay: In vivo liver ^23 Na NMR with DyTTHA^3- (Blum et al., literature); settings: dose of Blum et al. versus present methods
# Procedure: This dose is about 4-6 times greater than a typical dose of MRI contrast agent (0.1-0.2 mmole kg^-1 ), such as GdDTPA^2-. The inventors are aware of only one other ^23 Na NMR study of in vivo liver using a SR. Blum, H., Osbakken, M. D. & Johnson, R. G. (1991) Magn. Reson. Med. 18, 348-357 infused 6 mmoles kg^-1 h^-1 of DyTTHA^3- for 60 to 90 minutes to discriminate between intra- and extracellular sodium. This SR dose is 8-12 times larger than the amount of TmDOTP^5- employed using the methods of the present invention. After DyTTHA^3- infusion, Blum, H., Osbakken, M. D. & Johnson, R. G. (1991) Magn. Reson. […] This is extremely important for valid measurement of tissues volumes, relaxation rates, and ^23 Na visibility during physiological interventions.
# [11] = ^23 Na NMR of blood and urine samples during shift reagent infusion; format: in vivo, rat (Sprague-Dawley); settings: after DyTTHA^3- infusion
# Description: ^23 Na spectra obtained from the analysis of the blood and urine samples collected during infusion of either TmDOTP^5- or DyTTHA^3- were compared with the respective in vivo kidney spectrum. […] There was a signal from the urine sample at abut 35 ppm after infusion of DyTTHA^3- also, though there was no distinguishable signal in the corresponding in vivo spectrum (FIG. 3A and FIG. 3B).
# sodium in in vivo liver [12] = settings: cited from earlier work
compound,measurement,setting,value
"thulium(III) 1,4,7,10-tetraazacyclododecane-1,4,7,10-tetrakis (methylene phosphonate) [TmDOTP^5-]",dose at which intra- and extracellular ^23 Na resonances were clearly resolved,[1]; rat liver,0.55 mmol/kg
same,intracellular Na^+ peak intensity with further infusion,[1]; rat liver,did not change with further infusion
same,resolution of intra- and extracellular ^23 Na resonances in words,[1]; rat liver,sharp and well resolved; also recorded: baseline resolved peaks
same,^23 Na shift and line broadening in words,[1]; rat liver,larger ^23 Na chemical shift per unit concentration
same,paramagnetic shift of extracellular Na^+,"[1]; rat liver, after 0.65 mmoles kg^-1",approximately 5 ppm
same,dose required to induce a ^23 Na shift of 5 ppm,[1]; rat liver,0.65 mmol/kg
same,"peak width at half height, extracellular resonance",[1]; rat liver,80 Hz
same,"peak width at half height, intracellular resonance",[1]; rat liver,70 Hz
same,washout t1/2,rat brain,37 min
same,crossing of the blood brain barrier,[2],does not cross the blood brain barrier
same,renal high energy phosphate levels,[3]; kidney,unaffected
same,"^31 P resonance areas and chemical shifts, kidney",[3]; kidney during infusion,did not produce any change
same,blood pressure of the animals,[3]; kidney study,small drop in blood pressure
same,"intracellular Na^+ resonance intensity with further infusion, kidney",kidney sodium; kidney in vivo,does not change with further SR infusion
same,resolution of Na^+ resonances in kidney in words,kidney sodium; kidney in vivo,well resolved
same,separation between extra- and intracellular Na^+ resonances,"kidney sodium; kidney, about 0.681 mmoles/KgBW",7-10 ppm
same,shift of broad shifted resonance,"kidney sodium; kidney, about 10 minutes, 0.147 mmoles/KgBW",about 15 ppm
same,infusion dose at which second resonance became visible as shoulder,"kidney sodium; kidney, about 14 minutes",0.254 mmoles/KgBW
same,infusion dose at which three resonances became clearly resolved,"kidney sodium; kidney, about 17 minutes",0.334 mmoles/KgBW
same,shift of third ^23 Na resonance,"kidney sodium; kidney, after TmDOTP^5- infusion",about 35 ppm
same,^31 P resonances / phosphate metabolites,[4]; rat liver during infusion,without producing any changes in phosphate metabolite resonances; also recorded: unaffected
same,intracellular pH,"[4]; rat liver, from shift of inorganic phosphate peak",without producing any changes in phosphate metabolite resonances or intracellular pH; also recorded: unaffected
same,washout t1/2,rat liver,9 min
same,heart rate throughout the study,[5],261±19 beats/min
same,"mean arterial blood pressure (MAP) after infusion, burn group",[5],65±4 mm Hg
same,"mean arterial blood pressure (MAP) after infusion, sham burn group",[5],78±3 mm Hg
same,liver physiology / tolerability in words,[6],may be safely used in intact animal studies without the co-addition of Ca^2+; also recorded: basic liver physiology is largely unaffected; also recorded: quite non-perturbing to the animal
same,resting transmembrane potential (-Em) of liver,in vivo exposed livers,tended to increase during the highest infusion rates
same,arterial pCO2,[7],45±2 mm Hg
same,arterial pH,[7],7.36±0.02
same,arterial pO2,[7],120±8 mm Hg
same,developed pressure during infusion,[7],40±5 mm Hg
same,free Ca^2+ levels in blood serum,[7],relatively small change
same,heart rate during infusion,[7],240±20
same,hemoglobin,[7],13 ± 1 g/dL
same,increase in serum sodium,[7],10 meq/L
same,mean arterial pressure (MAP) during infusion,[7],~70 mm Hg
same,serum potassium,[7],3.5±0.2 meq/L
same,serum sodium after infusion,[7],158±5 meq/L
same,Ca^2+ release from body stores during infusion,[8],rapidly released from body stores
same,"total dosage needed to produce an equivalent Na^+ shift, burned animals","[9]; burned rats, liver",0.44 ± 0.04 mmol
same,"total dosage needed to produce an equivalent Na^+ shift, control animals","[9]; control rats, liver",0.64 ± 0.08 mmol
same,Na^+ (i) concentration in hepatic cells on infusion,"[9]; rat, in vivo",did not alter Na^+ (i) concentration in hepatic cells
same,^31 P spectra of livers during infusion,"[9]; rat, in vivo",did not change appreciably
"O=C([O-])CN(CCN(CCN(CC(=O)[O-])CC(=O)[O-])CC(=O)[O-])CCN(CC(=O)[O-])CC(=O)[O-].[Dy+3] [DyTTHA^3-, dysprosium(III)triethylenetetraminehexaacetate]",washout t1/2,rat muscle,44 min
same,"broadening factor of intracellular resonance line-width, DyTTHA^3- versus TmDOTP^5-",[1]; rat liver,~3 factor
same,resolution of intra- and extracellular ^23 Na resonances in words,[1]; rat liver,very broad and not resolved; also recorded: did not improve the resolution of intra- and extracellular resonances
same,^23 Na shift and line broadening in words,[1]; rat liver,much lower ^23 Na shift per unit concentration and more severe line broadening
same,dose required to induce a ^23 Na shift of 5 ppm,[1]; rat liver,3.74 mmol/kg
same,"peak width at half height, extracellular resonance",[1]; rat liver,300 Hz
same,"peak width at half height, intracellular resonance",[1]; rat liver,195 Hz
same,hemodynamic stability during infusion,[1]; versus TmDOTP^5-,hemodynamically more stable
same,dose ratio of DyTTHA^3- versus TmDOTP^5-,sodium in in vivo liver [10],8-12 times
same,dose at which intracellular Na^+ resonance became evident as a shoulder,kidney sodium; kidney,3-5 mmoles/KgBW
same,dose ratio versus TmDOTP^5- for comparable shift,kidney sodium; kidney,5-8 times
same,resolution of Na^+ resonances in kidney in words,kidney sodium; kidney in vivo,did not produce resolved Na^+ resonances
same,third highly shifted Na^+ resonance in kidney in words,kidney sodium; kidney in vivo,no indication of the existence of the third highly shifted Na^+ resonance
same,shift of ^23 Na signal from urine sample,[11],~35 ppm
same,resolution of sodium resonances in words,sodium in in vivo liver [12]; 6 mmoles kg^-1 h^-1 for 60 to 90 minutes,very broad and were not resolved
same,extracellular Na^+ signal shift in words,sodium in in vivo liver [12]; Blum et al.,shifted downfield by about the same amount as in the present study
